This note sets out measurements from US6472348B1, “Pyridone derivatives and herbicides” (Kumiai Chemical Industry Co., Ltd., priority 1996, dated 2002).

What all share (type): in vivo
One series has as its system barnyardgrass (Ec). In words: Test Example 2: herbicidal effects by upland field soil treatment.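 Also: grade of growth control; 5 = at least 90%; 4 = 70 to 90%; 3 = 50 to 70%; 2 = 30 to 50%; 1 = 10 to 30%; 0 = under 10%.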 Particulars: 100 g of the active ingredient per 10 ares. From the text:
(§1) (Test on Herbicidal Effects by Upland Field Soil Treatment)

Series [1] deals with common lambsquarters (Ch). The description is as above. Particulars: 100 g of the active ingredient per 10 ares.
Text: as §1

In series [2] the test system is slender amaranth (Am). Described as above. Conditions: 100 g of the active ingredient per 10 ares.
Text: as §1

A further series relates to pale smartweed (Po). The series is described as above. Conditions: 100 g of the active ingredient per 10 ares.
Text: as §1

For another series, the system named is rice flatsedge (Ci). Described as above. Particulars: 100 g of the active ingredient per 10 ares.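 Also: grade of growth control; 5 = at least 90%; 4 = 70 to 90%; 3 = 50 to 70%; 2 = 30 to 50%; 1 = 10 to 30%; 0 = under 10%.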
Text: as §1

The subject of another series is Digitaria ciliaris (Di). Described as above. Conditions: 100 g of the active ingredient per 10 ares.
Text: as §1

The next series has as its system green foxtail (Se). In words: Test Example 4: crop plant selectivity by upland field soil treatment (cotton), herbicidal effects. Also noted: scale not given here. Conditions: evaluated 21st day after application. An outline of the steps: (§2)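 Cotton and weeds (incl. China jute, pale smartweed, slender amaranth) sown in sand-filled pots and covered with soil, then soil-treated. Grown in greenhouse; herbicidal effect and cotton phytotoxicity scored on day 21 after application against a rating standard.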

The test system of series [3] is slender amaranth (Am). The series is described as above. More on the design: scale not given here. Conditions: evaluated 21st day after application. The method, boiled down: as §2
A further series has as its system China jute (Ab). The description is as above. Also noted: scale not given here. Conditions: evaluated 21st day after application. The method, boiled down: as §2
In another series the test system is corn (Ze). In words: Test Example 7: crop plant selectivity by upland field soil treatment (corn), phytotoxicity. Also noted: scale not given here. Particulars: 21st day after application. The method, boiled down: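 Values are ratings of herbicidal effect and phytotoxicity on a standard scale, taken 21 days after application. Test species were sown together with corn in sand-filled pots, covered with soil, and grown in a greenhouse.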

The mark [4] stands for this setting: evaluated on the 21st day after application.
The mark [5] stands for this setting: 21st day after the application, index 0-5 of Table 47.
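For Herbicidal effects Ch in this document: grade of growth control; 5 = at least 90%; 4 = 70 to 90%; 3 = 50 to 70%; 2 = 30 to 50%; 1 = 10 to 30%; 0 = under 10%.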
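For Herbicidal effects Po in this document: grade of growth control; 5 = at least 90%; 4 = 70 to 90%; 3 = 50 to 70%; 2 = 30 to 50%; 1 = 10 to 30%; 0 = under 10%.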

Regarding `C#CC(C)Oc1cc(-c2cn(C)c(C(F)(F)F)cc2=O)c(F)cc1Cl` (racemic) [Compound 6-10], the “Herbicidal effects Ec” value with barnyardgrass (Ec) (setting [4]) stood at 5. In addition, the “Herbicidal effects Ch” value in [1] (setting [4]) stood at 5. Moreover, the “Herbicidal effects Am” value with slender amaranth (Am) [2] (setting [4]), in the series with slender amaranth (Am) [3] (dose 1.6 g ai/10 a) and in the series on slender amaranth (Am) [3] (dose 6.3 g ai/10 a) was 5 throughout. For the same compound, the “Herbicidal effects Po” value with pale smartweed (Po) (setting [4]) is 5. In addition, in the series on rice flatsedge (Ci) (setting [4]), the “Herbicidal effects Ci” value turned out to be 5. Further, the “Herbicidal effects Di” value with Digitaria ciliaris (Di) (setting [4]) was 5. Besides, the “Herbicidal effects Se” value in the series with green foxtail (Se) (dose 1.6 g ai/10 a) is listed as 4; in the series on green foxtail (Se) (dose 6.3 g ai/10 a), 5. Besides, the “Herbicidal effects Ab” value in the series on China jute (Ab) (dose 1.6 g ai/10 a) is recorded as 4; in the series with China jute (Ab) (dose 6.3 g ai/10 a), 5.

For the compound `COc1cc(-c2ccc(C(F)(F)F)n(C)c2=O)c(F)cc1Cl` [1-15], in the series on barnyardgrass (Ec) (setting [5]), the “Herbicidal effects Ec” value was 5. The “Herbicidal effects Ch” value in [1] (setting [5]) was 5. Also, the “Herbicidal effects Am” value with slender amaranth (Am) [2] (setting [5]), in the series on slender amaranth (Am) [3] (dose 1.6 g ai/10 a) and in the series on slender amaranth (Am) [3] (dose 6.3 g ai/10 a) was 5 each time. The “Herbicidal effects Po” value with pale smartweed (Po) (setting [5]) was found to be 5. In the series with rice flatsedge (Ci) (setting [5]), the “Herbicidal effects Ci” value amounted to 5. The “Herbicidal effects Di” value in the series with Digitaria ciliaris (Di) (setting [5]) is on record as 5. Also, in the series on corn (Ze) (dose 1.6 g ai/10a), the “Phytotoxicity Ze” value stood at 1. The “Herbicidal effects Se” value in the series on green foxtail (Se) (dose 1.6 g ai/10 a) and in the series on green foxtail (Se) (dose 6.3 g ai/10 a) was 5 in each case. The “Herbicidal effects Ab” value in the series on China jute (Ab) (dose 1.6 g ai/10 a) and with China jute (Ab) (dose 6.3 g ai/10 a) was 5 throughout.

For the compound `C=CCOc1cc(-c2ccc(C(F)(F)F)n(C)c2=O)c(F)cc1Cl` [1-16], in the series on barnyardgrass (Ec) (setting [5]), the “Herbicidal effects Ec” value is reported as 5. Moreover, the “Herbicidal effects Ch” value in series [1] (setting [5]) is 5. Also, the “Herbicidal effects Am” value in the series with slender amaranth (Am) [2] (setting [5]), in the series with slender amaranth (Am) [3] (dose 1.6 g ai/10 a) and with slender amaranth (Am) [3] (dose 6.3 g ai/10 a) was 5 in each case. Moreover, the “Herbicidal effects Po” value with pale smartweed (Po) (setting [5]) was determined as 5. The “Herbicidal effects Ci” value in the series on rice flatsedge (Ci) (setting [5]) worked out at 5. For the same compound, in the series with Digitaria ciliaris (Di) (setting [5]), the “Herbicidal effects Di” value was determined as 5. Moreover, the “Phytotoxicity Ze” value in the series on corn (Ze) (dose 1.6 g ai/10a) was 0; in the series on corn (Ze) (dose 6.3 g ai/10a), 1. For the same compound, the “Herbicidal effects Se” value in the series with green foxtail (Se) (dose 1.6 g ai/10 a) and in the series on green foxtail (Se) (dose 6.3 g ai/10 a) was 5 throughout. Besides, the “Herbicidal effects Ab” value in the series on China jute (Ab) (dose 1.6 g ai/10 a) and in the series with China jute (Ab) (dose 6.3 g ai/10 a) was 5 in each case.

On to `C#CC(C)Oc1cc(-c2ccc(C(F)(F)F)n(C)c2=O)c(F)cc1Cl` (centres unmarked) [1-17], for which, in the series on barnyardgrass (Ec) (setting [5]), the “Herbicidal effects Ec” value came out at 5. For the same compound, the “Herbicidal effects Ch” value in [1] (setting [5]) is 5. Moreover, the “Herbicidal effects Am” value with slender amaranth (Am) [2] (setting [5]), in the series with slender amaranth (Am) [3] (dose 1.6 g ai/10 a) and with slender amaranth (Am) [3] (dose 6.3 g ai/10 a) was 5 throughout. The “Herbicidal effects Po” value in the series with pale smartweed (Po) (setting [5]) was 5. In addition, in the series with rice flatsedge (Ci) (setting [5]), the “Herbicidal effects Ci” value was determined as 5. Moreover, the “Herbicidal effects Di” value in the series on Digitaria ciliaris (Di) (setting [5]) turned out to be 5. The “Phytotoxicity Ze” value in the series on corn (Ze) (dose 1.6 g ai/10a) and with corn (Ze) (dose 6.3 g ai/10a) was 1 each time. The “Herbicidal effects Se” value in the series with green foxtail (Se) (dose 1.6 g ai/10 a) and in the series on green foxtail (Se) (dose 6.3 g ai/10 a) was 5 in each case. In addition, the “Herbicidal effects Ab” value in the series on China jute (Ab) (dose 1.6 g ai/10 a) is 5; in the series on China jute (Ab) (dose 6.3 g ai/10 a), 4.

As for `C#CCOc1cc(-c2ccc(C(F)(F)F)n(C)c2=O)c(F)cc1Cl` [1-18], the “Herbicidal effects Ec” value in the series with barnyardgrass (Ec) (setting [5]) amounted to 5. Besides, the “Herbicidal effects Ch” value in series [1] (setting [5]) stood at 5. In addition, the “Herbicidal effects Am” value in the series with slender amaranth (Am) [2] (setting [5]), with slender amaranth (Am) [3] (dose 1.6 g ai/10 a) and with slender amaranth (Am) [3] (dose 6.3 g ai/10 a) was 5 each time. Besides, the “Herbicidal effects Po” value in the series with pale smartweed (Po) (setting [5]) was found to be 5. Besides, the “Herbicidal effects Ci” value with rice flatsedge (Ci) (setting [5]) stood at 5. Besides, the “Herbicidal effects Di” value in the series on Digitaria ciliaris (Di) (setting [5]) is given as 5. The figures for the “Phytotoxicity Ze” value with corn (Ze) (dose 1.6 g ai/10a) and with corn (Ze) (dose 6.3 g ai/10a) were 1 and 2, respectively. Further, the “Herbicidal effects Se” value with green foxtail (Se) (dose 1.6 g ai/10 a) and with green foxtail (Se) (dose 6.3 g ai/10 a) was 5 in each case. The “Herbicidal effects Ab” value in the series on China jute (Ab) (dose 1.6 g ai/10 a) and with China jute (Ab) (dose 6.3 g ai/10 a) was 5 throughout.

`Cn1c(C(F)(F)F)ccc(-c2cc(OCC#N)c(Cl)cc2F)c1=O` [1-25]: the “Herbicidal effects Ec” value in the series on barnyardgrass (Ec) (setting [5]) is on record as 5. Further, in series [1] (setting [5]), the “Herbicidal effects Ch” value was 5. The “Herbicidal effects Am” value in the series on slender amaranth (Am) [2] (setting [5]) and in the series on slender amaranth (Am) [3] (dose 6.3 g ai/10 a) was 5 each time. For the same compound, in the series on pale smartweed (Po) (setting [5]), the “Herbicidal effects Po” value was 5. Also, the “Herbicidal effects Ci” value in the series with rice flatsedge (Ci) (setting [5]) amounted to 5. The “Herbicidal effects Di” value in the series with Digitaria ciliaris (Di) (setting [5]) turned out to be 5. For the same compound, the “Phytotoxicity Ze” value with corn (Ze) (dose 6.3 g ai/10a) was 1. Also, in the series with green foxtail (Se) (dose 6.3 g ai/10 a), the “Herbicidal effects Se” value stood at 5. For the same compound, the “Herbicidal effects Ab” value with China jute (Ab) (dose 6.3 g ai/10 a) is on record as 5.

`C#CCOc1cc(-c2ccc(C(F)(F)F)n(C)c2=O)c(Cl)cc1Cl` [1-30]: the “Herbicidal effects Ec” value in the series with barnyardgrass (Ec) (setting [5]) is given as 5. Also, in [1] (setting [5]), the “Herbicidal effects Ch” value came to 5. In addition, the “Herbicidal effects Am” value in the series on slender amaranth (Am) [2] (setting [5]), in the series on slender amaranth (Am) [3] (dose 1.6 g ai/10 a) and in the series with slender amaranth (Am) [3] (dose 6.3 g ai/10 a) was 5 in each case. The “Herbicidal effects Po” value with pale smartweed (Po) (setting [5]) is 5. In addition, in the series on rice flatsedge (Ci) (setting [5]), the “Herbicidal effects Ci” value is listed as 5. Moreover, the “Herbicidal effects Di” value in the series on Digitaria ciliaris (Di) (setting [5]) came to 5. The “Phytotoxicity Ze” value turned out to be 1 in the series with corn (Ze) (dose 1.6 g ai/10a) and 2 in the series on corn (Ze) (dose 6.3 g ai/10a). The “Herbicidal effects Se” value in the series with green foxtail (Se) (dose 1.6 g ai/10 a) and with green foxtail (Se) (dose 6.3 g ai/10 a) was 5 throughout. Moreover, the “Herbicidal effects Ab” value in the series on China jute (Ab) (dose 1.6 g ai/10 a) and in the series on China jute (Ab) (dose 6.3 g ai/10 a) was 5 each time.

Consider `CC(C)Sc1cc(-c2ccc(C(F)(F)F)n(C)c2=O)c(F)cc1Cl` [1-43], for which the “Herbicidal effects Ec” value in the series on barnyardgrass (Ec) (setting [5]) turned out to be 5. For the same compound, the “Herbicidal effects Ch” value in series [1] (setting [5]) was determined as 5. In addition, the “Herbicidal effects Am” value with slender amaranth (Am) [2] (setting [5]) and in the series with slender amaranth (Am) [3] (dose 6.3 g ai/10 a) was 5 each time. The “Herbicidal effects Po” value with pale smartweed (Po) (setting [5]) amounted to 5. In addition, the “Herbicidal effects Ci” value in the series on rice flatsedge (Ci) (setting [5]) is 5. Also, the “Herbicidal effects Di” value in the series with Digitaria ciliaris (Di) (setting [5]) is 5. Besides, the “Phytotoxicity Ze” value in the series on corn (Ze) (dose 6.3 g ai/10a) was determined as 1. Moreover, the “Herbicidal effects Se” value with green foxtail (Se) (dose 6.3 g ai/10 a) was determined as 5. Also, in the series with China jute (Ab) (dose 6.3 g ai/10 a), the “Herbicidal effects Ab” value stood at 4.
